In data set [1] the test system is LOX human melanoma cell adhesion to human vitronectin. Kind of data set: LOX cell adhesion to vitronectin. The format is cell-based. The settings on record: read-out: Vitronectin IC50. How it is done: (§1) Adhesion assays were run essentially as described previously (Pai et al., J. Biomed. Res. 2: 53, 1992). 96-well plates were coated with human fibronectin (140 ng/well), human vitronectin (75 ng/well), human collagen I (100 ng/well), human collagen IV (100 ng/well), human fibrinogen (1 μg/well), murine laminin (600 ng/well), or polylysine, and incubated overnight in a humidified 37° C. incubator. Excess fibronectin or other substrate was then removed and 0.2 ml of 2 mg/ml bovine serum albumin (BSA)in Dulbecco's phosphate-buffered saline (DPBS) was added to each well, incubated for 2 hours at 37° C., and removed. LOX human melanoma cells, M27 murine lung carcinoma cells or B16F10 mouse melanoma cells were detached from tissue culture flasks with RPMI medium containing 0.2M urea and 10 mM EDTA, and 0.18 ml of cells were added to each well to a final cell concentration of 1×10^5 cells/well. For inhibition studies 20 μl of 10× compound was added to the wells prior to cell addition. Cells were allowed to adhere for 1 hour at 37° C. The wells were then gently washed twice with 0.2 ml DPBS. The fluorescent dye calcein AM (Molecular Probes, Eugene Oreg.) in DPBS (0.1 ml of 1 μM) was added to each well, and the plates were incubated for 1 hour at room temperature. Adherent cells were quantitated by reading the fluorescence on a Cytofluor 2300 fluorescent plate reader (Millipore) at 485 nm excitation and 530 nm emission.

Data set [2] concerns LOX human melanoma cell adhesion to human collagen IV. As to the kind of experiment: LOX cell adhesion to collagen IV. The settings on record: read-out: Collagen IV IC50. It counts as cell-based. How it is done: as §1
Data set [3] can be described thus: Calcein cytotoxicity assay. The format is cell-based. The settings on record: human, lox melanoma cells; for CC50 at 2 h / CC50 at 6 h: calcein AM assay; for CC50 at 2 h: read-out: 2 Hr Tox LD50; for CC50 at 6 h: read-out: 6 Hr Tox LD50.
A further data set relates to LOX human melanoma cells. As to the kind of experiment: Tumor cell invasion through collagen/fibronectin coated membranes. The format is cell-based. The settings on record: for IC50: Homo sapiens, 5 hours; for inhibition of in vitro tumor cell invasion: fibronectin/collagen matrix. Here is the method: […] Cell Invasion Through Collagen/Fibronectin Coated Membranes:
Nucleopore polycarbonate membranes (8 μm pore size) were coated with 0.05 ml of type I collagen and allowed to dry overnight. 210 μl of serum free DMEM with BSA was added to each Boyden chamber. Membranes were placed in chambers and upper chambers were screwed on. Human fibronectin (50 μl of 0.1 mg/ml solution in DMEM with BSA) was added to the top chamber and allowed to sit on membranes for 1 hour at room temperature. Compounds (50 μl) at 10× concentration in DMEM with BSA were added to the chambers. LOX melanoma cells were detached from flasks with trypsin/EDTA solution and resuspended in RPMI with 10% fetal bovine serum. Cells were centrifuged, washed 2× with DMEM with BSA, and resuspended in 10 ml of DMEM with BSA. LOX cells (0.45 ml of 7.8×10^5 cells per ml) were added to each chamber and chambers were incubated for 5 hours at 37° C. The medium was removed from the upper chamber by aspiration, the top chamber was unscrewed, and the membrane was removed. The membrane was inverted, pinned to a dissecting tray, and fixed with Diff Quik fixative for 3 minutes The fixative was then removed and Diff Quik Stain was added for 2 minutes. The stain was decanted and membranes were rinsed with distilled water. Membranes were inverted onto glass slides, and non-invading cells were wiped away with a cotton swab. Permount was added to the slide and the membrane was covered with a cover slip. The number of cells that invaded was quantitated on a Nikon TMS microscope with C-2 Image Analyzer software (Olympus Corp.).
The greater potency of the compounds in this assay (IC50 for compound B<400 nM) may result from the longer duration of this assay (5 hours) relative to the fibronectin adhesion assay (1 hour).

For data set [4], the system named is LOX human melanoma cell adhesion to murine laminin. Kind of data set: LOX cell adhesion to laminin. The format is cell-based. Particulars: read-out: Laminin IC50. Here is the method: as §1
Data set [5] deals with LOX human melanoma cell adhesion to human fibrinogen. As to the kind of experiment: LOX cell adhesion to fibrinogen. The format is cell-based. The settings on record: read-out: Fibrinogen IC50. How it is done:
as §1

Data set [6] relates to LOX human melanoma cell adhesion to human fibronectin. As to the kind of experiment: LOX melanoma cell adhesion to fibronectin. It counts as cell-based. Particulars: Homo sapiens, LOX; for inhibition at 10 µM: read-out: % Inhibition at 10 μM; for inhibition at 50 µM: read-out: % Inhibition at 50 μM. A digest of the protocol:
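Compound added to fibronectin-coated (140 ng/well), BSA-blocked wells before LOX cells (1×10^5/well, detached with urea/EDTA). Cells adhered 1 h at 37 °C, then washed. Adherent cells quantified by calcein AM fluorescence (485/530 nm); IC50 for adhesion inhibition.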

In a further data set the target is ELAM-1 (Homo sapiens, UniProt P16581). Kind of data set: cell-based. Here is the method: Cell adhesion to ELAM-1 was measured essentially as described previously (Pal et al., J. Biomed. Res. 2: 53, 1992). Undifferentiated HL-60 leukemia cells were prelabelled for 30 minutes with 1 μM calcein AM in DPBS without calcium or magnesium, and the cells were washed twice with the same medium before addition to 96-well plates containing monolayers of mouse L cells (5×10^4 cells/well) transfected with cDNA for the adhesion molecule ELAM-1. Adhesion was allowed to proceed for 30 minutes at room temperature before washing and quantitation of the remaining fluorescent HL-60 cells as described above.
ELAM-1 (E-selectin) is a member of the selectin class of adhesion molecules.

The test system of data set [7] is M27 murine lung carcinoma cell adhesion to fibronectin. As to the kind of experiment: M27 lung carcinoma cell adhesion to fibronectin. The format is cell-based. The settings on record: Mus musculus; read-out: M27 FN IC50. How it is done:
as §1

Another data set concerns the target T1, ICAM-1 (Homo sapiens, UniProt P05362).
T1 construct: recombinant soluble ICAM-1 (2 μg/well)
As to the kind of experiment: HL-60 cell adhesion to recombinant soluble ICAM-1. It counts as cell-based. The settings on record: HL-60 cells. How it is done: For measurement of cell adhesion to ICAM-1, HL-60 human leukemia cells were induced to differentiate in the presence of DMSO for 6 days. Adhesion of DMSO-differentiated HL-60 cells to recombinant soluble ICAM-1 (2 μg/well) was measured as described above for LOX cell adhesion, except that the adhesion was allowed to proceed for 30 minutes, rather than 1 hour, at 37° C.
ICAM-1 is a cell surface adhesion molecule that participates in cell-cell adhesion interactions, rather than cell-matrix adhesion interactions.

For data set [8], the system named is B16-F10 mouse melanoma cell adhesion to fibronectin. Kind of data set: B16-F10 melanoma cell adhesion to fibronectin. It counts as cell-based. Particulars: read-out: B16 FN IC50. How it is done:
as §1

Data set [9] relates to LOX human melanoma cell adhesion to polylysine. As to the kind of experiment: LOX melanoma cell adhesion to polylysine. It counts as cell-based. Particulars: read-out: Poly Lys IC50.

Where two headings read alike, the source gives them in different places.

The term IC50 denotes the midpoint of a concentration-inhibition curve. Usually inhibition stands for the relative decrease from the control value, in per cent.

Sequence of ELAM-1 (P16581 22-610): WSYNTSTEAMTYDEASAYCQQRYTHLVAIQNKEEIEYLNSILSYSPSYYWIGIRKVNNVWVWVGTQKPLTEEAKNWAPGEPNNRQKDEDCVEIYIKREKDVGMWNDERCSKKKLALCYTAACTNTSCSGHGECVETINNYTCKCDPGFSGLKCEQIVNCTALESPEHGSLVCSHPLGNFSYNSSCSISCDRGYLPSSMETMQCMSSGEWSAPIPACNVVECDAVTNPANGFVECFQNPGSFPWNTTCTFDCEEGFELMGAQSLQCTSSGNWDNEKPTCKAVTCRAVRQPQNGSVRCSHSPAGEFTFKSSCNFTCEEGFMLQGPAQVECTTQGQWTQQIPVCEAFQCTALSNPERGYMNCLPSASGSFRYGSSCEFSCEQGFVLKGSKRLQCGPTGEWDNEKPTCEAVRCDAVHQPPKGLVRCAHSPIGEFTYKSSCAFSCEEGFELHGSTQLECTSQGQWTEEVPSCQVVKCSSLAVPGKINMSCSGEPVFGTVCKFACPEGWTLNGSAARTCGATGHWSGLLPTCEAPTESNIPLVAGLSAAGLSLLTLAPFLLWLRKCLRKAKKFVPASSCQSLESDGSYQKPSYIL
T1 sequence (P05362 28-480 limits assumed): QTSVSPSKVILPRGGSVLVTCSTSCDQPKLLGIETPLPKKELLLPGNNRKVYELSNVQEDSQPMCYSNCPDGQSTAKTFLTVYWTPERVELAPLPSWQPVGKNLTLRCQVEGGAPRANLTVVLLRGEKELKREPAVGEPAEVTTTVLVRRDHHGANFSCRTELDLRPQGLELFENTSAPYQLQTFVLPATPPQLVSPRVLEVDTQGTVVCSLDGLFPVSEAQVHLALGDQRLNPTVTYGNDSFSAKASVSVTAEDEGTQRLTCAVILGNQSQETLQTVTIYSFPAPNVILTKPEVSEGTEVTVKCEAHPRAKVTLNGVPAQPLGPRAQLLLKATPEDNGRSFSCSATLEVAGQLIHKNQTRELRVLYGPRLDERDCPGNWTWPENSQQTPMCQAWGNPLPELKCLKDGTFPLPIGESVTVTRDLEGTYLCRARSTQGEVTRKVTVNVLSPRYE

Regarding `CN1C2CCC1C1C(=C(c3ccc(Cl)cc3)c3ccccc31)C2` (stereo not drawn) [C], the IC50 in [1] worked out at 5.9 µM; in [2] it was 9.9 µM; in the data set with LOX human melanoma cells (read-out: Invasion IC50), 0.66 µM; in data set [4], 3.5 µM; in data set [5] it was 6.2 µM; in [6] (1 h, read-out: LOX FN IC50), 7.3 µM. Besides, the IC50 is 7.3 µM in data set [6] (read-out: Fibronectin IC50); above 50 µM at ELAM-1; 13.7 µM in data set [7]; 24.8 µM on ICAM-1; 15.1 µM in data set [8]; 248 µM in data set [9]. In addition, in data set [3] (2 hours), the CC50 at 2 h is 85.3 µM. Besides, in data set [3] (6 hours), the CC50 at 6 h was 22.5 µM. The “inhibition of in vitro tumor cell invasion” value in the data set on LOX human melanoma cells is listed as “inhibit in vitro tumor cell invasion through a fibronectin/collagen matrix”. The inhibition at 10 µM in data set [6] amounted to 58.6%. Also, the inhibition at 50 µM in data set [6] came to 101%.

As for `COc1ccc(C2=C3CC4CCC(N4)C3c3ccccc32)cc1` (stereo not drawn) [Compound B], the IC50 was 16.8 µM in [1]; 16.2 µM in [2]; below 0.4 µM with LOX human melanoma cells (read-out: Invasion IC50); below 0.4 µM in the data set on LOX human melanoma cells (read-out: Invasion IC50 (text)); 7.7 µM in data set [4]; 9.9 µM in data set [5]. Moreover, the IC50 is 5.1 µM in data set [6] (1 h, read-out: LOX FN IC50); 5.1 µM in [6] (read-out: Fibronectin IC50); above 50 µM against ELAM-1; 17.1 µM in data set [7]; above 50 µM on ICAM-1; 14.7 µM in data set [8]. The IC50 in [9] worked out at 22.3 µM. Also, in [3] (2 hours), the CC50 at 2 h was 74.5 µM. Further, in data set [3] (2 hours, calcein AM, read-out: selectivity for blockade of fibronectin adhesion vs. cytotoxicity (2 Hour Tox)), the selectivity ratio at 2 h was 15. For the same compound, the CC50 at 6 h in data set [3] (6 hours) was 24.6 µM. Further, in [3] (6 hours, calcein AM, read-out: selectivity for blockade of invasion vs. cytotoxicity (6 Hour Tox)), the selectivity ratio at 6 h was above 61. Besides, the “inhibition of in vitro tumor cell invasion” value in the data set with LOX human melanoma cells is recorded as “inhibit in vitro tumor cell invasion through a fibronectin/collagen matrix”. The inhibition at 10 µM in data set [6] worked out at 61.8%. The inhibition at 50 µM in data set [6] was determined as 101%.

For the compound `Cc1ccc(C2=C3CC4CCC(C3c3ccccc32)N4C)cc1` (stereo not drawn) [J], the 50% inhibitory concentration (IC50) in [1] worked out at 12.8 µM; in data set [2] it was 10 µM; with LOX human melanoma cells (read-out: Invasion IC50), 0.48 µM; in data set [4], 2.5 µM; in data set [5], 13.5 µM; in data set [6] (1 h, read-out: LOX FN IC50), 5.3 µM. The IC50 in [6] (read-out: Fibronectin IC50) was 5.3 µM; against ELAM-1 it was above 50 µM; in data set [7], 17.9 µM; on ICAM-1 it was above 50 µM; in [8], 15.9 µM; in data set [9], 53.2 µM. Besides, the CC50 at 2 h in data set [3] (2 hours) is 58.4 µM. Moreover, the CC50 at 6 h in [3] (6 hours) was 30.6 µM. In the data set on LOX human melanoma cells, the “inhibition of in vitro tumor cell invasion” value is reported as “inhibit in vitro tumor cell invasion through a fibronectin/collagen matrix”. Besides, the inhibition at 10 µM in [6] was determined as 31.1%. In [6], the inhibition at 50 µM was 101%.

Source of the values: patent US5461057A, “Hydro-ethano-indeno-pyridines” (priority 1994, dated 1995).
